Literature values as cited in patent US20090291122A1, “Wound Care Treatment Product” (SANO MEDICAL bvba, priority 2006, published 2009).

Tested on: E-coli

O=[O+][O-] [Ozone]
speed of killing E-coli relative to chlorine: 3125 times faster than chlorine
